Laboratory results reported in patent publication US20210101905A1, “Development of Imaging and Therapeutic Glucose Analogues for Sodium Dependent Glucose Transporters” (Llnited States Government as represented by the Department …, priority 2019, published 2021).

Columns and labels:
[1] = test system: metastatic prostate cancer; settings: men with metastatic prostate cancer, phase III; cited from earlier work
SGLTs and GLUTs = settings: prior work; cited from earlier work
[2] = rat, in vivo; cited from earlier work
PC-3 = experiment: 6FGA uptake in PC-3 cells, with and without transporter inhibitors or sodium; assay type: cell-based, human; settings: PC3 cell line
Description: See FIG. 2A-D. Its transport properties were evaluated in two human metastatic cancer cell lines: triple negative breast cancer MDA-MB-231 and human prostate cancer (PC-3). […] See also FIG. 5A, FIG. 5B, and FIG. 6.
The assays are performed from a modified protocol as we have done previously, and from flow cytometry formats (Zou ry al. (2005) J Biochem Biophys Methods 64:207-15; Landau et al. (2007) American journal of physiology Endocrinology and metabolism 293:E237-45). In brief, cells are grown to confluence using recommended growth media in 96-well plates. […] The cells are detached with trypsin and resuspended in PBS. The cells are analysed using flow cytometry with the Cy5.5 filter set (excitation 685 nm, exmission 710 nm) gated for 250,000 counts.

Row | SMILES | transport by SGLTs / GLUTs (SGLTs and GLUTs) | effect of inhibitor on 6FGA uptake (PC-3) | further results
1 | [Cl][223Ra][Cl] [Xofigo, ^223RaCl2] | – | – | adverse events [1]: low rates of myelosuppression and few adverse events; overall survival [1]: improve overall survival
2 | O=C[C@H](O)[C@@H](O)[C@H](O)[C@H](O)C[18F] [[18F]6FDG, 18F-labelled 6-fluoro-6-deoxy-D-glucose] | transported by SGLTs and GLUTs | – | activity in the bladder [2]: no activity was evident in the bladder; renal handling [2]: reabsorbed in proximal tubules of kidneys
3 | OC[C@H]1OC(O)[C@H]([18F])[C@@H](O)[C@@H]1O (stereo partly drawn) [[^18F]FDG, ^18F-labeled 2-fluoro-2-deoxy-D-glucose] | poorly transported by SGLTs | – | –
4 | C=C1[C@@H](C)[C@H]2[C@H](Cc3ccccc3)NC(=O)[C@]23OC(=O)/C=C/[C@H](O)CCC[C@@H](C)C/C=C/[C@H]3[C@@H]1O [cytochalasin B] | – | not blocked | –
5 | O=C(CCc1ccc(O)cc1)c1c(O)cc(O)cc1O[C@@H]1O[C@H](CO)[C@@H](O)[C@H](O)[C@H]1O [phlorizin] | – | blocked | –
